± gives the standard deviation of the averaged measurements.
Assays:
Assay in all cases: level (log10 ratio to DMSO vehicle control); higher = higher biomarker level / cell amount than vehicle control
Conditions in all cases: in DMSO
[1] = compound: CCN(CCO)S(=O)(=O)C(F)(F)C(F)(F)C(F)(F)C(F)(F)C(F)(F)C(F)(F)C(F)(F)C(F)(F)F [N-Ethyl-N-(2-hydroxyethyl)perfluorooctanesulfonamide]
Method: (§1)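 BioMAP Diversity Plus panel of 12 human primary cell co-culture systems (3C, 4H, LPS, SAg, BT, BF4T, BE3C, CASM3C, HDF3CGF, KF3CT, MyoF, Mphg). Compounds were added 1 h before stimulation and left for 24 h (MyoF 48 h; BT 72 h for soluble read-outs or 6 d for IgG). Biomarkers were read by ELISA, cytotoxicity by SRB, PBMC viability and proliferation by Alamar Blue. Each well value was divided by the mean of 8 DMSO control wells on the same plate and log10 transformed; duplicate blinded samples were tested at 4 concentrations.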

Perfluoro-1-iodohexane = compound: FC(F)(F)C(F)(F)C(F)(F)C(F)(F)C(F)(F)C(F)(F)I [Perfluoro-1-iodohexane]
Method: as §1

[2] = compound: FC(F)(F)C(F)(F)C(F)(F)C(F)(F)C(F)(F)CCI [1-Iodo-1H,1H,2H,2H-perfluoroheptane]
Method: as §1

Heptafluorobutyramide = compound: NC(=O)C(F)(F)C(F)(F)C(F)(F)F [Heptafluorobutyramide]
Method: as §1

[3] = compound: O=C(O)C(F)(F)C(F)(F)C(F)(F)OC(F)(C(F)(F)F)C(F)(F)F [Perfluoro-4-isopropoxybutanoic acid]
Method: as §1

Perfluoropropanoic acid = compound: O=C(O)C(F)(F)C(F)(F)F [Perfluoropropanoic acid]
Method: as §1

[4] = compound: O=C(O)C(F)(F)OC(F)(F)C(F)(F)OC(F)(F)F [Perfluoro-3,6-dioxaheptanoic acid]
Method: as §1

Test System	level (log10) ([1]; 6700 nM)	level (log10) ([1]; 20000 nM)	level (log10) (Perfluoro-1-iodohexane; 6700 nM)	level (log10) (Perfluoro-1-iodohexane; 20000 nM)	level (log10) (Perfluoro-1-iodohexane; 60000 nM)	level (log10) ([2]; 6700 nM)	level (log10) ([2]; 20000 nM)	level (log10) ([2]; 60000 nM)	level (log10) (Heptafluorobutyramide; 6700 nM)	level (log10) (Heptafluorobutyramide; 20000 nM)	level (log10) (Heptafluorobutyramide; 60000 nM)	level (log10) ([3]; 6700 nM)	level (log10) ([3]; 20000 nM)	level (log10) ([3]; 60000 nM)	level (log10) (Perfluoropropanoic acid; 6700 nM)	level (log10) (Perfluoropropanoic acid; 20000 nM)	level (log10) (Perfluoropropanoic acid; 60000 nM)	level (log10) ([4]; 6700 nM)	level (log10) ([4]; 20000 nM)	level (log10) ([4]; 60000 nM)
CASM3C:PAI-I	0 ± 0.0071	0.004 ± 0.0085	-0.003 ± 0.0071	-0.007 ± 0.0014	-0.003 ± 0.0028	0.003 ± 0.0042	0.001 ± 0.0014	0.007 ± 0.0042	-0.0045 ± 0.0021	-0.0045 ± 0.012	0.0105 ± 0.0035	0.007 ± 0.016	0.01 ± 0.021	0.0075 ± 0.026	-0.0035 ± 0.0021	-0.003 ± 0.0014	0.0005 ± 0.0064	-0.004 ± 0.0099	-0.013 ± 0.024	-0.0105 ± 0.018
HDF3CGF:PAI-I	-0.0695 ± 0.061	-0.211 ± 0.08	0.017 ± 0.011	0.005 ± 0.031	-0.041 ± 0.014	0.078 ± 0.02	0.0135 ± 0.0078	0.0355 ± 0.096	-0.0105 ± 0.018	-0.0275 ± 0.028	-0.0125 ± 0.03	-0.001 ± 0.033	-0.0115 ± 0.025	-0.0165 ± 0.013	-0.07 ± 0.1	-0.005 ± 0.12	-0.002 ± 0.04	-0.0525 ± 0.00071	0.0225 ± 0.037	0.06
CASM3C:M-CSF	0.0045 ± 0.00071	0.0395 ± 0.0092	-0.0125 ± 0.025	0.0055 ± 0.032	0.0085 ± 0.043	-0.0055 ± 0.035	-0.0145 ± 0.011	-0.0265 ± 0.0092	-0.0495 ± 0.0035	-0.0375 ± 0.018	0.022 ± 0.073	0.0165 ± 0.032	0.0075 ± 0.039	0.0155 ± 0.043	-0.0265 ± 0.16	0.0055 ± 0.0092	0.034 ± 0.065	-0.09 ± 0.035	-0.02 ± 0.023	0.034 ± 0.0014
lMphg:CD69	-0.0715 ± 0.012	-0.129 ± 0.0099	-0.031 ± 0.048	-0.0425 ± 0.06	-0.031 ± 0.045	-0.0365 ± 0.083	-0.063 ± 0.072	-0.0405 ± 0.066	-0.0155 ± 0.022	-0.0145 ± 0.044	0.0115 ± 0.066	-0.044 ± 0.014	-0.069 ± 0.021	-0.0455 ± 0.054	0.0105 ± 0.059	-0.022 ± 0.025	0.0045 ± 0.029	0.0255 ± 0.069	0.0085 ± 0.033	0.058 ± 0.0085
3C:CD54/ICAM-1	0.03 ± 0.013	0.075 ± 0.065	0 ± 0.0057	0.0025 ± 0.0078	0.012 ± 0.0014	0.0055 ± 0.021	0.0015 ± 0.0092	0.0085 ± 0.005	-0.023 ± 0.02	-0.008 ± 0.0014	-0.019 ± 0.016	0.0075 ± 0.016	-0.0085 ± 0.022	0.0285 ± 0.0078	-0.0365 ± 0.012	-0.0085 ± 0.0064	0.017 ± 0.02	-0.0325 ± 0.0064	-0.0165 ± 0.019	0.0035 ± 0.005
HDF3CGF:Collagen I	0.0835 ± 0.03	0.112 ± 0.0092	-0.0285 ± 0.026	-0.0365 ± 0.0092	-0.045 ± 0.0071	0.003 ± 0.017	0.0055 ± 0.005	-0.093 ± 0.061	0.0065 ± 0.011	-0.0025 ± 0.015	0.0155 ± 0.069	-0.0285 ± 0.067	-0.043 ± 0.078	0.032 ± 0.12	0 ± 0.038	-0.031 ± 0.1	0.0375 ± 0.012	0.0055 ± 0.0064	0.049 ± 0.0085	0.069 ± 0.0014
HDF3CGF:TIMP-1	0.005 ± 0.081	-0.0605 ± 0.074	-0.014 ± 0.021	-0.017 ± 0.025	-0.0385 ± 0.016	-0.001 ± 0.0042	0.0055 ± 0.005	-0.024 ± 0.0085	0.002 ± 0.017	-0.017 ± 0.051	-0.001 ± 0.0042	-0.023 ± 0.048	-0.0155 ± 0.043	0.018 ± 0.11	-0.0195 ± 0.016	-0.0045 ± 0.0064	0.038 ± 0.025	-0.0265 ± 0.029	-0.012 ± 0.052	-0.0655 ± 0.074
MyoF:bFGF	-0.01 ± 0.016	-0.025 ± 0.0042	-0.0085 ± 0.0064	-0.002 ± 0.0042	0.0235 ± 0.036	0.0005 ± 0.0078	0.005 ± 0.011	0.046 ± 0.013	-0.0155 ± 0.021	0.004 ± 0.016	-0.001 ± 0.013	-0.014 ± 0.016	-0.0225 ± 0.026	-0.004 ± 0.027	-0.0175 ± 0.016	0.01 ± 0.0028	0.015 ± 0.038	-0.021 ± 0.023	0.0045 ± 0.023	-0.0095 ± 0.021
MyoF:Collagen I	0.042 ± 0.0028	-0.155 ± 0.029	-0.0295 ± 0.019	-0.062 ± 0.04	-0.246 ± 0.094	-0.0065 ± 0.012	0.007 ± 0.0042	0.0375 ± 0.0035	-0.015 ± 0.013	-0.0105 ± 0.00071	-0.014 ± 0.0099	-0.0045 ± 0.0035	-0.0035 ± 0.021	0.0075 ± 0.016	-0.0205 ± 0.011	-0.0075 ± 0.026	0.0255 ± 0.047	-0.0185 ± 0.039	-0.002 ± 0.0099	-0.0155 ± 0.023
3C:CD62E/E-Selectin	0.0685 ± 0.012	0.068 ± 0.0057	-0.0025 ± 0.00071	-0.0165 ± 0.0035	-0.0025 ± 0.029	-0.005 ± 0.0071	0.004 ± 0.011	0.008 ± 0.018	-0.0085 ± 0.03	-0.017 ± 0.038	-0.0385 ± 0.0064	-0.007 ± 0.023	-0.015 ± 0.03	0.023 ± 0.0099	-0.01 ± 0.013	-0.005 ± 0.0085	0.0105 ± 0.013	-0.0045 ± 0.016	-0.02 ± 0.017	0.01 ± 0.0071
CASM3C:CCL2/MCP-1	0.003 ± 0.017	-0.017 ± 0.0057	0.006 ± 0.0099	-0.0085 ± 0.019	0.0015 ± 0.049	-0.0045 ± 0.011	-0.006 ± 0.028	-0.001 ± 0.037	-0.004 ± 0.0057	-0.0145 ± 0.0021	0.015 ± 0.037	-0.0255 ± 0.012	-0.0305 ± 0.005	0.027 ± 0.034	0.0025 ± 0.012	-0.0025 ± 0.019	0.0055 ± 0.00071	-0.0445 ± 0.09	-0.0325 ± 0.067	-0.039 ± 0.095
BE3C:tPA	0.142 ± 0.0099	-0.036 ± 0.058	-0.008 ± 0.028	-0.008 ± 0.023	0.0125 ± 0.028	-0.0055 ± 0.074	0.0465 ± 0.073	0.0495 ± 0.047	-0.027 ± 0.017	-0.0055 ± 0.0021	-0.0115 ± 0.028	-0.0285 ± 0.018	-0.0385 ± 0.0035	-0.0025 ± 0.057	-0.016 ± 0.0042	-0.028 ± 0.028	0 ± 0.0014	-0.025 ± 0.0099	-0.0485 ± 0.0021	-0.03 ± 0.033
CASM3C:CXCL9/MIG	-0.0675 ± 0.005	-0.166 ± 0.073	-0.0015 ± 0.0064	0.002 ± 0.0028	-0.0025 ± 0.036	-0.007 ± 0.0042	-0.0025 ± 0.0021	0.008 ± 0.011	-0.0035 ± 0.00071	-0.01 ± 0.0014	0.0005 ± 0.011	0.01 ± 0.0014	0.0125 ± 0.0021	0.044 ± 0.048	0.0125 ± 0.015	0.0125 ± 0.012	0.0255 ± 0.037	0.028 ± 0.058	0.0245 ± 0.083	0.0415 ± 0.087

From the supplement of paper PMC10331698
